The NIST ThermoML archive (doi:10.1021/je2008523)
± gives the expanded uncertainty stated by the source.

Assays:
[1] = refractive index (Na D-line) (dimensionless); settings: 303.1 K; 101.33 kPa; Liquid; Standard Abbe refractometry

## CN(CCO)CCO [N-methyldiethanolamine]
298.1 K, 101.33 kPa, Liquid, Vibrating tube method
  mass density: 1038.11 ± 0.92 kg/m3
298.15 K, 101.33 kPa, Liquid, Capillary tube (Ostwald / Ubbelohde) method
  viscosity: 77.09 ± 1.8 mPa·s
303.15 K, Pendant drop shape
  surface tension liquid-gas: 38.26 ± 0.53 mN/m
[1]
  refractive index: 1.46008 ± 0.00051
